Here are results for eleven compounds from PubChem BioAssay AID1963844 (Molecular Pharmacology Branch, DTP, NCI, 2024).

The test system of this assay is 422866-222-R5-J1-PDC complex spheroid viability. Description: Anticancer human tumor 422866-222-R5-J1-PDC patient-derived pancreatic adenocarcinoma cell line growth inhibition [POLQ]. The following applies: for viability, T/C: stronger effect = lower value; for IC50: curve of compound. The procedure:
Multicellular complex tumor spheroid response to Polymerase (POL) inhibitors (novobiocin, ART-558, RP6685) in combination with a variety of drugs and investigational agents in selected tumor cell lines
The POL inhibitors (novobiocin, ART-558, and RP6685) were evaluated both individually and in combination with standard of care and investigational anticancer small molecules within a complex spheroid model of solid tumors. . Complex spheroids include a stromal component modeled by human endothelial cells (HUVEC) and fibroblasts modeled by human mesenchymal stem cells (MSCs). The concentration ranges selected for each drug and investigational agent were based upon clinically achievable concentrations if the clinical Cmax of the agent was known.
Compounds. The drugs and investigational agents: novobiocin (NSC847541), ART-558 (NSC835418), RP-6685 (NSC848927), peposertib (NSC802822), ceralasertib (NSC780249), elimusertib (NSC800525), camonsertib (NSC841442), AZD-1390 (NSC803789), olaparib (NSC753686), talazoparib (NSC767125), rucaparib (NSC756644), sotorasib (NSC818433), MRTX-1133 (NSC836407), SN-38 (NSC673596), topotecan (NSC609699), epotoside (NSC141540), doxorubicin (NSC123127), gemcitabine (NSC613327), 5-fluorouracil (NSC19893), paclitaxel (NSC125973), vemurafenib (NSC761431), MSA-2 (NSC828583), SN-011 (NSC837082), adavosertib (NSC754352), prexasertib (NSC758257), carboplatin (NSC241240) and oxaliplatin (NSC266046), were obtained from the National Cancer Institute (NCI) Developmental Therapeutics Program Chemical Repository (21). The FDA-approved anticancer drug set is available from the Developmental Therapeutics Program at https://dtp.cancer.gov/organization/dscb/obtaining/. […] The stock solutions were prepared in dimethyl sulfoxide (DMSO, Sigma-Aldrich, St. Louis, MO, cat. D2650), except for the platinum compounds which were prepared in saline (Quality Biological, Gaithersburg, MD, cat. 114-055-101), at 800-fold the tested concentration and stored at -70 degrees C prior to their use. All drugs and investigational agents were tested over a range starting from a high concentration at or near the clinical Cmax and decreasing in half-log increments. If the clinical Cmax for an agent had not been determined, the highest concentration tested was 10 microM, except for SN-38, which was tested at a high concentration of 1 microM.
Cell Culture. All cells were maintained in an incubator at 37 degrees C and 5% CO2 with 95% humidity. The PDC lines were cultured according to standard operating procedures established by the NCI PDMR (https://pdmr.cancer.gov). Table 3 of the manuscript, lists the cell lines along with the number of the three cell types plated to form the mct-spheroids and media for tumor cell growth. After thawing, all PDC lines, except 997537-175-T-J1-PDC and 415267-285-R-J2-PDC, were cultured in Matrigel-coated flasks prepared with a working solution of 1X Ham's F-12 nutrient mix, without supplementation (Thermo Fisher Scientific, cat. 11765054), 100 U/mL penicillin-streptomycin (Thermo Fisher Scientific, cat. 15140122), and 2.5% Matrigel (Corning Inc., Corning, NY, cat. 354248) for the first three passages. The two PDC lines 997537-175-T-J1-PDC and 415267-285-R-J2-PDC were cultured on uncoated flasks. The 857933-349-R-J2-PDC line was cultured in 6C/Colon 1B media containing advanced DMEM/F-12 (Thermo Fisher Scientific, cat. 12634028), 10 mM HEPES (Thermo Fisher Scientific, cat. 15630080), 1X GlutaMAX supplement (Thermo Fisher Scientific, cat. 35050061), 0.1 mg/mL primocin (InvivoGen, San Diego, CA, cat. ant-pm-2), 10% defined fetal bovine serum, heat inactivated (HyClone Laboratories Inc., Logan, UT, cat. SH30070.03HI), 50% L-WRN conditioned media (ATCC, cat. CRL-3276), 1.25 mM N-Acetyl-L-cysteine (Sigma-Aldrich, cat. A9165), 10 mM nicotinamide (Sigma-Aldrich, cat. N0636), 1X B-27 supplement (Thermo Fisher Scientific, cat. 17504044), 1X N-2 supplement (Thermo Fisher Scientific, cat. […]

Structures are written as SMILES. Several values for one entry are separate records, joined by “and”; a condition that tells them apart may be missing. Equal entries are not always repeated.
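Also: spheroids exposed to compounds for one week before readout.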
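For viability, T/C in this document: percent of DMSO vehicle wells luminescence so 100% = untreated viability.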

Broadly, the viability, T/C is the result in the treated group divided by that in the control group, in per cent. One may read the IC50 as the point on the concentration scale where inhibition reaches its midpoint. Consider `C=CC(=O)N1CCN(c2nc(=O)n(-c3c(C)ccnc3C(C)C)c3nc(-c4c(O)cccc4F)c(F)cc23)C(C)C1` (centres undefined), for which the IC50 was less than 31.6 nM. Under “compound 0.0316 µM”, the viability, T/C was 30.6% and 30.5% and 34.5%. Besides, the viability, T/C (compound 0.1 µM) is 23.7% and 28.7% and 31.4%. For the same compound, the viability, T/C (compound 0.316 µM) is 24.4% and 29.1% and 24.3%. Moreover, under “compound 1 µM”, the viability, T/C was 23.3% and 29.6% and 26.2%. The viability, T/C (compound 3.16 µM) was 25.1% and 22.9% and 26.6%. Further, the viability, T/C (compound 10 µM) was 28.1% and 23.5% and 24.2%.
`C=CCn1c(=O)c2cnc(Nc3ccc(N4CCN(C)CC4)cc3)nc2n1-c1cccc(C(C)(C)O)n1`: the half-inhibitory concentration (IC50) is 434 nM and 272 nM and 446 nM. Moreover, the viability, T/C (compound 0.00316 µM) is 86.1% and 96.9% and 101%. Besides, where the note is “compound 0.01 µM”, the viability, T/C was 105% and 93% and 107%. Moreover, the viability, T/C (compound 0.0316 µM) was 105% and 93.5% and 83.3%. The viability, T/C (compound 0.1 µM) was 85.7% and 91% and 78.1%. The viability, T/C (compound 0.316 µM) is 56% and 43.9% and 56.5%. Further, the viability, T/C (compound 1 µM) was 36% and 31% and 34.6%.
Regarding `CC(=O)O[C@H]1C(=O)[C@@]2(C)[C@H]([C@H](OC(=O)c3ccccc3)[C@]3(O)C[C@H](OC(=O)[C@H](O)[C@@H](NC(=O)c4ccccc4)c4ccccc4)C(C)=C1C3(C)C)[C@]1(OC(C)=O)CO[C@@H]1C[C@@H]2O`, the IC50 is greater than 3000 nM. For the same compound, the viability, T/C (compound 0.00949 µM) was 50.9% and 53.8% and 66.3%. Further, under “compound 0.03 µM”, the viability, T/C is 50.2% and 51.8% and 56.2%. Moreover, the viability, T/C (compound 0.0949 µM) was 54.2% and 52.1% and 68.6%. Under “compound 0.3 µM”, the viability, T/C is 64.3% and 52.8% and 60.4%. Besides, the viability, T/C (compound 0.949 µM) was 53.7% and 57.4% and 68.9%. For the same compound, the viability, T/C (compound 3 µM) is 61.5% and 58.4% and 69.8%.
Take `CC(C)n1c(=O)n(C)c2cnc3cc(F)c(-c4ccc(OCCCN5CCCCC5)nc4)cc3c21`: the concentration for half-maximal inhibition (IC50) is greater than 10000 nM. In addition, where the note is “compound 0.0316 µM”, the viability, T/C is 105% and 90.3% and 107%. The viability, T/C (compound 0.1 µM) was 98.6% and 91.8% and 89.1%. In addition, the viability, T/C (compound 0.316 µM) is 110% and 103% and 104%. In addition, under “compound 3.16 µM”, the viability, T/C is 93.9% and 88.3% and 79.2%. In addition, the viability, T/C (compound 10 µM) was 70.4% and 52.7% and 75.8%.
Take `CC1COCCN1c1cc(-c2ccnn2C)c2ccnc(-c3ccn[nH]3)c2n1` (centres undefined): the half-inhibitory concentration (IC50) was > 10000 nM and 10000 nM. In addition, under “compound 0.0316 µM”, the viability, T/C is 76.8% and 96.8% and 97.8%. Also, the viability, T/C (compound 0.1 µM) was 61.1% and 55.4% and 46.2%. Besides, the viability, T/C (compound 0.316 µM) is 38.6% and 42.8% and 35.1%. For the same compound, the viability, T/C (compound 1 µM) was 44.4% and 36.6% and 37.6%. Also, the viability, T/C (compound 3.16 µM) is 80.4% and 81.7% and 64%. The viability, T/C (compound 10 µM) was 69.2% and 80.5% and 68.2%.
As for `CC1COCCN1c1cc(C2(S(C)(=N)=O)CC2)nc(-c2ccnc3[nH]ccc23)n1` (centres undefined), the 50% inhibitory concentration (IC50) was 3010 nM and 2460 nM and 2640 nM. Further, the viability, T/C (compound 0.0316 µM) was 92.3% and 91.5% and 116%. In addition, for the setting “compound 0.1 µM”, the viability, T/C was 101% and 93.1% and 100%. For the same compound, the viability, T/C (compound 0.316 µM) is 93.4% and 95.6% and 96.3%. Also, for the setting “compound 1 µM”, the viability, T/C is 74% and 72.6% and 85.2%. The viability, T/C (compound 3.16 µM) was 49.9% and 44.6% and 41.7%. The viability, T/C (compound 10 µM) was 39.9% and 30.8% and 42%.
In the case of `CCCS(=O)(=O)Nc1ccc(F)c(C(=O)c2c[nH]c3ncc(-c4ccc(Cl)cc4)cc23)c1F`, the concentration for half-maximal inhibition (IC50) is greater than 10000 nM. Moreover, the viability, T/C (compound 0.0316 µM) was 102% and 117% and 105%. Also, the viability, T/C (compound 0.1 µM) is 115% and 138% and 140%. Further, for the setting “compound 0.316 µM”, the viability, T/C was 130% and 119% and 128%. In addition, the viability, T/C (compound 1 µM) is 163% (2×) and 148%. Also, for the setting “compound 3.16 µM”, the viability, T/C is 194% and 210% and 192%.
As to `CC[C@@]1(O)C(=O)OCc2c1cc1n(c2=O)Cc2cc3c(CN(C)C)c(O)ccc3nc2-1`, the IC50 is 28.8 nM and 20 nM and 21.1 nM. In addition, where the note is “compound 0.000316 µM”, the viability, T/C is 104% and 91% and 103%. Besides, the viability, T/C (compound 0.001 µM) was 106% and 95.4% and 94.5%. The viability, T/C (compound 0.00316 µM) is 88% and 77% and 98.9%. The viability, T/C (compound 0.01 µM) is 70.4% and 68.2% and 68.5%. For the same compound, the viability, T/C (compound 0.0316 µM) is 48.4% and 37.3% and 41.3%. In addition, under “compound 0.1 µM”, the viability, T/C was 36% and 32.2% and 33.8%.
As for `CCc1c2c(nc3ccc(O)cc13)-c1cc3c(c(=O)n1C2)COC(=O)[C@]3(O)CC`, the half-inhibitory concentration (IC50) is less than 3.16 nM. Moreover, where the note is “compound 0.00316 µM”, the viability, T/C was 44.8% and 37.1% and 42.1%. Moreover, for the setting “compound 0.01 µM”, the viability, T/C is 37.5% and 32.6% and 33.8%. In addition, the viability, T/C (compound 0.0316 µM) is 39.4% and 34.2% and 30.3%. The viability, T/C (compound 0.1 µM) was 39.1% and 34% and 31.1%. Besides, the viability, T/C (compound 0.316 µM) is 32.7% and 37.2% and 29.6%. Besides, the viability, T/C (compound 1 µM) was 24.8% and 18.2% and 24.5%.
Take `CCc1cc2c(N3CCc4c(cc(Cn5ccnc5)cc4-c4cn(C)nc4C(F)(F)F)C3=O)cc(C)nc2c(OC)n1`: the IC50 is greater than 10000 nM. Moreover, the viability, T/C (compound 0.0316 µM) was 89.5% and 92.6% and 79.2%. Also, the viability, T/C (compound 0.1 µM) is 93.5% and 80.2% and 93.8%. Moreover, for the setting “compound 0.316 µM”, the viability, T/C was 96.5% and 104% and 95.6%. In addition, the viability, T/C (compound 1 µM) is 120% and 102% and 96.1%. Also, the viability, T/C (compound 10 µM) was 109% and 99.8% and 115%.
For `CCc1cc2c(N3CCc4c(cc(Cn5ccnc5)cc4-c4cn(C)nc4C(F)(F)F)C3=O)ccnc2c(OC)n1`, the IC50 is greater than 10000 nM. Further, the viability, T/C (compound 0.0316 µM) was 93.7% and 75.7% and 82.9%. Besides, the viability, T/C (compound 0.1 µM) was 81% and 78.8% and 84.5%. The viability, T/C (compound 0.316 µM) was 89.8% and 81.5% and 92.5%. Moreover, the viability, T/C (compound 1 µM) is 117% and 113% and 99.8%. In addition, the viability, T/C (compound 3.16 µM) is 129% and 108% and 106%. Further, the viability, T/C (compound 10 µM) is 108% and 87.1% and 92.4%.
